Test results reported in patent US20040087498A1, “Modified factor VII” (Novo Nordisk Health Care AG, priority 1991, published 2004).
“And” between values parts separate entries of the source, which are not always exact repeats. Identical values can stand only once.

Experiments:
rabbit plasma = assay: Prothrombin time in plasma of balloon angioplasty rabbits; format: in vivo; settings: for Clotting Time (prothrombin time), individual animals: listed as DEGR-FVIIa
Protocol: The test drug delivery for the animals consisted of an initial bolus injection immediately prior to balloon angioplasty, followed by a continuous systemic infusion by osmotic pump via the internal jugular vein. The duration of the drug infusion was 3 days. The control animals received heparin, 150 U/kg IV bolus, prior to balloon angioplasty followed by saline infusion. The DEGR-FVIIa treated animals received a 1 mg/kg bolus injection followed by 50 μg/kg/hr infusion.
Prothrombin time and concentration of DEGR-FVIIa in the blood were determined at immediately pre-bolus injection of the test compound, 1 hr post bolus injection, and at 3 days at the end of continuous infusion. One to two mls of citrated plasma was obtained and the prothrombin times and antigen levels determined.
A standard clotting assay was used to monitor the prothrombin time in the control and DEGR-FVIIa-treated animals as follows. Twenty-five microliters of test rabbit plasma, collected with sodium citrate as anticoagulant, was added to 150 μl of TBS (20 mM Tris, pH 7.4, 150 mM NaCl). The samples were mixed and added to an Electra 800 Automated Coagulation Timer (Medical Laboratories Automation, Pleasantville, N.Y.). After incubation, 200 μl of thromboplastin preparation (Sigma Chemical) containing 25 mM CaCl2 was added to the plasma preparations. A concentration of thromboplastin that gave a clotting time of approximately 20 seconds in the control rabbit plasma was selected.

gram-negative bacteremia = assay: Survival of treated baboons; format: in vivo, baboon
[1] = test system: platelet accumulation at sites of arterial thrombosis; assay: Platelet accumulation on endarterectomized baboon aorta in an extracorporeal shunt; format: in vivo
Excerpt: A model of aortic endarterectomy was utilized in baboons, essentially as described by Lumsden et al. (Blood 81:1762-1770 (1993)). A section of baboon aorta 1-2 cm in length was removed, inverted and scraped to remove the intima of the artery and approximately 50% of the media. The artery was reverted back to its correct orientation, cannulated on both ends and placed into an extracorporeal shunt in a baboon, thereby exposing the mechanically injured artery to baboon blood via the shunt. Just prior to opening of the shunt to the circulating blood, ^111In-labeled autologous platelets were injected intravenously into the animal. The level of platelet accumulation at the site of the injured artery was determined by real-time gamma camera imaging.
The injured arteries were measured continuously for 60 minutes. […] At a 1.0 mg/kg bolus injection, approximately 90% of platelet accumulation was inhibited at 1 hour post drug administration.

[2] = test system: cell-surface tissue factor on baboon smooth muscle cells; assay: Cell-surface Factor Xa generation on baboon SMCs; format: cell-based
Excerpt: A cell-surface chromogenic assay was developed, essentially as described in Example VIII above, to measure the efficacy of DEGR-FVIIa to block FVIIa binding to cell-surface tissue factor and the subsequent conversion of Factor X to Factor Xa on monolayers of baboon smooth muscle cells (SMCs). This method is a modification of those described by Sakai et al., J. Bio. Chem. 264:9980-9988 (1989) and Wildgoose et al., Proc. Natl. Acad. Sci. USA. 87:7290-7294 (1990). Baboon SMCs were obtained from the University of Washington, Seattle, Wash., and were cultured from aortic explants. The baboon SMCs were plated into 96-well culture dishes at a concentration of 8,000 cells/well in 200 μl/well DMEM culture media supplemented with 10% fetal calf serum, and maintained in this media for 4 days at 37° C. in 5% CO2. At the time of assay 110 μl of culture media was removed, and increasing concentrations of FVIIa or FVIIa in combination with DEGR-FVIIa were added to wells. A standard curve for FVIIa concentration was generated, ranging from 5 nM to 0.04 nM. […] Twenty-five microliters per well of 0.8 mM S-2222, a factor Xa-specific chromogenic substrate, in Tris buffer was added and the absorbance at 405 nm read after 60 mins in a Thermomax microplate reader (Molecular Devices Corp., Menlo Park, Calif.).

## DEGR-Factor VIIa: Recombinant human Factor VIIa with its active site derivatized by Dansyl-L-Glu-Gly-Arg-chloromethyl Ketone (DEGRck)
Rabbit plasma; 1 Hr POST ANGIO
  Plasma clotting time, Mean: 40.8
Rabbit plasma; 3 Days POST ANGIO
  Plasma clotting time, Mean: 21.06
Rabbit plasma; 1 hour after 1 mg/kg bolus, 50 μg/kg/hr infusion
  Clotting Time (prothrombin time), individual animals: 40.1 s and 34 s and 50 s and 33.3 s and 45.8 s and 41.6 s
Rabbit plasma; 3 days, end of 50 μg/kg/hr infusion
  Clotting Time (prothrombin time), individual animals: 18.3 s and 20.9 s and 21.7 s and 21 s and 21.2 s and 21.9 s and 22.4 s
Rabbit plasma; PRE-BLEED
  Plasma clotting time, Mean: 23.2
Rabbit plasma; Pretreatment (pre-bolus)
  Clotting Time (prothrombin time), individual animals: 22.5 s and 24.3 s and 24.7 s and 23.6 s and 20.6 s and 23.5 s
gram-negative bacteremia
  survival: prolong survival of treated animals
[1]; baboon, 0.005 mg/kg bolus injection
  platelet accumulation: inhibited platelet accumulation
[1]; baboon, 1.0 mg/kg bolus injection, 1 hour post drug administration
  inhibition of platelet accumulation: approximately 90%
[1]; bolus injection, arteries measured over 60 minutes, versus saline-treated controls
  thrombus formation (platelet deposition): significantly inhibited the development of platelet-rich thrombi
[2]; 10-fold lower level of DEGR-FVIIa than FVIIa (5 nM)
  inhibition in the generation of Factor Xa chromogenic activity: 40%
[2]; equal molar ratio of DEGR-FVIIa to FVIIa (5 nM)
  inhibition of the chromogenic activity: > 90%
